The values that follow come from patent publication US20250326815A1, “STAPLE-CONTAINING POLYPEPTIDES AND APPLICATION THEREOF” (Soter Biopharma Pte. Ltd., priority 2021, published 2025).

The nature of data set [1]: Plasma stability assay (PLS), mouse. The class given is in vitro ADME. Conditions: pH 7.4, 37° C., read-out: PLS (mouse) T1/2. How it is done: Stability of the assay compound in normal mouse plasma was studied.
1. Before the assay, the coagulated frozen plasma was thawed in a 37° C. water bath. The plasma was centrifuged at 4000 rpm for 5 minutes. If there were blood clots, the blood clots were removed. The pH value was adjusted to 7.4±0.1.
2. Preparation of assay compound solution: An assay compound was dissolved in DMSO to prepare a 100 μM solution.
3. 98 μL of blank control plasma was added to 2 μL of the assay compound solution (100 μM), so that the final concentration of the mixed solution reached 2 μM. The mixed solution was incubated in a 37° C. water bath.
4. 100 μL of H3PO4 solution and 800 μL of stop solution (a solution of 200 ng/ml tolbutamide and 200 ng/ml labetalol in 100% methanol) were added at each time point (0, 10, 30, 60 and 120 min), respectively, to precipitate proteins, and mixed thoroughly.
5. The sample was centrifuged at 4000 rpm for 20 min. 100 μL of supernatant from each well was taken for LC-MS/MS analysis.

Data set [2] in a line: Plasma stability assay (PLS), human. The data set is classed as in vitro ADME. As to conditions: pH 7.4, 37° C., read-out: PLS (human) T1/2.

SMILES strings stand for the structures.

As to `CC(C)C[C@H](NC(=O)[C@H](CC(C)C)NC(=O)[C@H](Cc1c[nH]c2ccccc12)NC(=O)[C@H](CCC(=O)O)NC(=O)[C@@H](NC(=O)[C@H](Cc1ccccc1)NC(=O)[C@H](CCC(=O)O)NC(=O)[C@@H]1CCCCNC(=O)CN(C(=O)COCCOCCNC(=O)COCCOCCNC(=O)CC[C@H](NC(=O)CCCCCCCCCCCCCCCCCCC(=O)O)C(=O)O)CC(=O)NCCCC[C@H](NC(=O)[C@H](CCC(=O)O)NC(=O)[C@H](CC(=O)O)NC(=O)[C@H](CC(C)C)NC(=O)[C@H](Cc2ccc(O)cc2)NC(=O)[C@H](CCCCN)NC(=O)[C@H](CO)NC(=O)[C@H](Cc2ccc(O)cc2)NC(=O)[C@H](CC(=O)O)NC(=O)[C@H](CO)NC(=O)[C@@H](NC(=O)[C@H](Cc2ccccc2)NC(=O)[C@@H](NC(=O)CNC(=O)[C@H](CCC(N)=O)NC(=O)C(C)(C)NC(=O)[C@@H](N)Cc2c[nH]cn2)[C@@H](C)O)[C@@H](C)O)C(=O)N[C@@H](CCCCN)C(=O)N[C@@H](C)C(=O)N1)C(C)C)C(=O)N[C@@H](CCC(=O)O)C(=O)NCC(=O)NCC(=O)N1CCC[C@H]1C(=O)N[C@@H](CO)C(=O)N[C@@H](CO)C(=O)NCC(N)=O` [WX001], the half-life at 2 μM in data set [1] and in data set [2] was greater than 4.82 h in each case.
